From patent publication US20260337156A1, “SOLUBILIZING COMPOUNDS” (Vivesto AB, priority 2022, published 2026)
Each block holds one compound with its values, some of them ahead of it.

Legend:
Format in all cases: physicochemical
[1] = drug loading capacity (ratio of amount API:(API+excipient))
Method: (§1) The solution was evaporated to dryness in a rotary evaporator. Final drying was performed in a desiccator to remove residual solvent. Hydration of the dried film was performed by adding water for injection (1.2 mL). […] Drug loading capacity is defined as the ratio of amount API:(API+excipient).
(§2) 20 mg of example 1 was dispensed into a 25 mL round bottom flask and dissolved in methanol (3 mL). 800 μL of a stock solution of docetaxel in methanol (5 mg/mL) was added. The solution was evaporated to dryness in a rotary evaporator. Final drying was performed in a desiccator to remove residual solvent. Hydration of the dried film was performed by adding water for injection (1.0 mL) to a concentration of 4 mg/mL of docetaxel. The 4 mg/mL concentration was further diluted with 0.9% sodium chloride according to the table below.
(§3) 11 mg of example 1 was dispensed into a 25 mL round bottom flask and dissolved in methanol (2 mL). 740 μL of a stock solution of docetaxel in methanol (4.96 mg/mL) was added. The solution was evaporated to dryness in a rotary evaporator. Final drying was performed in a desiccator to remove residual solvent.
as §3, with “4.5” for “11”, “compound” for “example”, “1500” for “740”, “cabazitaxel” for “docetaxel”, “(1.00” for “(4.96”
as §3, with “4.5” for “11”, “compound” for “example”, “1500” for “740”, “cyclosporin” for “docetaxel”, “(1.00” for “(4.96”
4.0 mg of compound 2 was dispensed into a 25 mL round bottom flask and dissolved in methanol (3 mL). 250 μL of a stock solution of docetaxel in methanol (5 mg/mL) was added. The solution was evaporated to dryness in a rotary evaporator. Final drying was performed in a desiccator to remove residual solvent. Hydration of the dried film was performed by adding water for injection (1.25 mL). […]
as §3, with “4.5” for “11”, “compound 3” for “example 1”, “(3” for “(2”, “305” for “740”
as §3, with “4.5” for “11”, “compound 3” for “example 1”, “(3” for “(2”, “[…]” for “740”

[2] = micellar particle size and polydispersity index (ZetaSizer, dynamic light scattering) of drug formulations at different dilutions
Method: The particle size of the micelles in the composition is typically in the range of about 5 to about 150 nm. The particle size may be determined e.g. using Dynamic Light Scattering (DLS) in 0.9% NaCl at 1 mg/mL drug concentration, preferably using a red laser with a wavelength of 633 nm.
Micellar size was measured using a ZetaSizer from Malvern Panalytical. […]
as §2, with “below. […]” for “below.”
A serial dilution was performed for the system docetaxel:compound 1. A stock solution of docetaxel in methanol was mixed with a stock solution of the micelle forming agent (compound 1) in a round bottom flask at a weight ratio of 1:5. The mixture was evaporated to dryness in a rotary evaporator. Final drying was performed in a desiccator to remove residual solvent. Hydration of the dried film was performed by adding water for injection (1.0 mL) to a concentration of 1 mg/mL of docetaxel. The resulting solution was filtered through a 0.22 μm sterile filter and further diluted with 0.9% sodium chloride solution.
as §3, with “4.5” for “11”, “compound” for “example”, “1500” for “740”, “cabazitaxel” for “docetaxel”, “(1.00” for “(4.96”, “solvent. […]” for “solvent.”

[3] = appearance of the hydrated drug formulation
Method: 3.8 mg of compound 1 was dispensed into a 25 mL round bottom flask and dissolved in methanol (2 mL). 240 μL of a stock solution of docetaxel in methanol (5 mg/mL) was added.
as §1, §3
as §3, with “4.5” for “11”, “compound” for “example”, “1500” for “740”, “cabazitaxel” for “docetaxel”, “(1.00” for “(4.96”
as §3, with “4.5” for “11”, “compound” for “example”, “1500” for “740”, “cyclosporin” for “docetaxel”, “(1.00” for “(4.96”, “solvent. […]” for “solvent.”
4.5 mg of compound 4 was dispensed into a round bottom flask and dissolved in methanol (3 mL). […] of a stock solution of docetaxel in methanol (4.96 mg/mL) was added. The solution was evaporated to dryness in a rotary evaporator. Final drying was performed in a desiccator (40 min) to remove residual solvent. Rehydration of the dried film was performed by adding 0.9% sodium chloride solution (1.5 mL).

[4] = docetaxel, ratio 3:1, docetaxel conc. 1 mg/mL
[5] = micelles with docetaxel, ratio 2:1, 0.9% NaCl, docetaxel conc. 0.25 mg/mL
[6] = micelles with docetaxel, ratio 2:1, 0.9% NaCl, docetaxel conc. 0.5 mg/mL
[7] = micelles with docetaxel, ratio 2:1, 0.9% NaCl, docetaxel conc. 1 mg/mL
[8] = micelles with docetaxel, ratio 3:1, 0.9% NaCl, docetaxel conc. 0.25 mg/mL
[9] = micelles with docetaxel, ratio 3:1, 0.9% NaCl, docetaxel conc. 0.5 mg/mL
[10] = micelles with docetaxel, ratio 3:1, 0.9% NaCl, docetaxel conc. 1 mg/mL
[11] = micelles with cabazitaxel, ratio 3:1, 0.9% NaCl, cabazitaxel conc. 0.25 mg/mL
[12] = micelles with cabazitaxel, ratio 3:1, 0.9% NaCl, cabazitaxel conc. 0.5 mg/mL
[13] = micelles with cabazitaxel, ratio 3:1, 0.9% NaCl, cabazitaxel conc. 1 mg/mL
[14] = micelles with cyclosporin, ratio 3:1, 0.9% NaCl, cyclosporin conc. 0.25 mg/mL
[15] = micelles with cyclosporin, ratio 3:1, 0.9% NaCl, cyclosporin conc. 0.5 mg/mL
[16] = micelles with cyclosporin, ratio 3:1, 0.9% NaCl, cyclosporin conc. 1 mg/mL
[17] = micelles with docetaxel, ratio 5:1, docetaxel conc. 0.25 mg/mL
[18] = micelles with docetaxel, ratio 5:1, docetaxel conc. 0.5 mg/mL
[19] = micelles with docetaxel, ratio 5:1, docetaxel conc. 1 mg/mL
[20] = micelles with docetaxel, 1.2 mg docetaxel + 3.8 mg compound, water 1.2 mL + 0.9% NaCl 1.0 mL
[21] = serial dilution, docetaxel:compound 1:5, compound conc. 0.08 mM
[22] = serial dilution, docetaxel:compound 1:5, compound conc. 0.12 mM
[23] = serial dilution, docetaxel:compound 1:5, compound conc. 0.15 mM
[24] = serial dilution, docetaxel:compound 1:5, compound conc. 0.3 mM
[25] = serial dilution, docetaxel:compound 1:5, compound conc. 0.6 mM
[26] = serial dilution, docetaxel:compound 1:5, compound conc. 1.2 mM
[27] = serial dilution, docetaxel:compound 1:5, compound conc. 2.4 mM
[28] = serial dilution, docetaxel:compound 1:5, compound conc. 4.8 mM

Drug loading capacity ([1]; docetaxel, ratio 2:1, docetaxel conc. 0.25 mg/mL): 25%
Drug loading capacity ([1]; docetaxel, ratio 2:1, docetaxel conc. 0.5 mg/mL): 25%
Drug loading capacity ([1]; docetaxel, ratio 2:1, docetaxel conc. 1 mg/mL): 25%
Drug loading capacity ([1]; docetaxel, ratio 3:1, docetaxel conc. 0.25 mg/mL): 25%
Drug loading capacity ([1]; docetaxel, ratio 3:1, docetaxel conc. 0.5 mg/mL): 25%
Drug loading capacity [1, 4]: 25%
Particle size [2, 5]: 14.0 nm
Polydispersity index [2, 5]: 0.53
Particle size [2, 6]: 19.9 nm
Polydispersity index [2, 6]: 0.76
Particle size [2, 7]: 13.5 nm
Polydispersity index [2, 7]: 0.52
Particle size [2, 8]: 11.8 nm
Polydispersity index [2, 8]: 0.27
Particle size [2, 9]: 11.3 nm
Polydispersity index [2, 9]: 0.25
Particle size [2, 10]: 9.30 nm
Polydispersity index [2, 10]: 0.33
appearance of formulation ([3]; formulation with docetaxel): transparent yellow solution
Structure (SMILES): COc1cc(C)c(/C=C/C(C)=C/C=C/C(C)=C/C(=O)N(C)CCS(=O)(=O)[O-])c(C)c1C.[Na+] [Compound 3]

Drug loading capacity ([1]; cabazitaxel, ratio 3:1, cabazitaxel conc. 0.25 mg/mL): 25%
Drug loading capacity ([1]; cabazitaxel, ratio 3:1, cabazitaxel conc. 0.5 mg/mL): 25%
Drug loading capacity ([1]; cabazitaxel, ratio 3:1, cabazitaxel conc. 1 mg/mL): 25%
Drug loading capacity ([1]; cyclosporin, ratio 3:1, cyclosporin conc. 0.25 mg/mL): 25%
Drug loading capacity ([1]; cyclosporin, ratio 3:1, cyclosporin conc. 0.5 mg/mL): 25%
Drug loading capacity ([1]; cyclosporin, ratio 3:1, cyclosporin conc. 1 mg/mL): 25%
Drug loading capacity ([1]; docetaxel 1.2 mg + compound 3.8 mg): 24%
Drug loading capacity [1, 4]: 25%
Drug loading capacity ([1]; docetaxel, ratio 5:1, docetaxel conc. 1 mg/mL): 17%
Particle size [2, 11]: 121.2 nm
Polydispersity index [2, 11]: 0.079
Particle size [2, 12]: 111.2 nm
Polydispersity index [2, 12]: 0.102
Particle size [2, 13]: 87.6 nm
Polydispersity index [2, 13]: 0.145
Particle size [2, 14]: 60.1 nm
Polydispersity index [2, 14]: 0.258
Particle size [2, 15]: 53.3 nm
Polydispersity index [2, 15]: 0.293
Particle size [2, 16]: 41.7 nm
Polydispersity index [2, 16]: 0.212
Particle size [2, 8]: 56.0 nm
Polydispersity index [2, 8]: 0.29
Particle size [2, 9]: 52.6 nm
Polydispersity index [2, 9]: 0.25
Particle size [2, 10]: 47.7 nm
Polydispersity index [2, 10]: 0.24
Particle size [2, 17]: 49.6 nm
Polydispersity index [2, 17]: 0.25
Particle size [2, 18]: 41.5 nm
Polydispersity index [2, 18]: 0.24
Particle size [2, 19]: 29.2 nm
Polydispersity index [2, 19]: 0.24
Particle size [2, 20]: 7.0 nm
Polydispersity index [2, 20]: 0.20
Particle size [2, 21]: 33.73 nm
Polydispersity index, pdi [2, 21]: 0.45
Particle size [2, 22]: 32.72 nm
Polydispersity index, pdi [2, 22]: 0.39
Particle size [2, 23]: 34.06 nm
Polydispersity index, pdi [2, 23]: 0.34
Particle size [2, 24]: 37.85 nm
Polydispersity index, pdi [2, 24]: 0.25
Particle size [2, 25]: 36.53 nm
Polydispersity index, pdi [2, 25]: 0.18
Particle size [2, 26]: 36.5 nm
Polydispersity index, pdi [2, 26]: 0.16
Particle size [2, 27]: 36.2 nm
Polydispersity index, pdi [2, 27]: 0.14
Particle size [2, 28]: 35.4 nm
Polydispersity index, pdi [2, 28]: 0.11
appearance of formulation ([3]; formulation with cabazitaxel, 1 mg/mL in 0.9% NaCl): yellow transparent solution
appearance of formulation ([3]; formulation with cyclosporin, 1 mg/mL in 0.9% NaCl): yellow transparent solution
appearance of formulation ([3]; formulation with docetaxel): yellow transparent solution
Structure (SMILES): COc1cc(C)c(/C=C/C(C)=C/C=C/C(C)=C/C(=O)N(CCS(=O)(=O)[O-])C2CCCCC2)c(C)c1C.[Na+] [Compound 1]
trend of micellar size and RSD during dilution ([2]; docetaxel:compound 1:5, serial dilution with 0.9% NaCl): The micellar size and RSD showed no significant trend during dilution
